# In PubChem BioAssay (NCI):
#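 Assay format: 96-well plates, 48-hour exposure. Definition used: TGI = concentration required for complete inhibition of growth.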
# Experiments:
# Experiment in all cases: NCI anticancer screen, dose series, 48 h
# UACC-257 melanoma = test system: UACC-257 melanoma
# RXF 393 renal = test system: RXF 393 renal
# OVCAR-8 ovarian = test system: OVCAR-8 ovarian
# SK-MEL-2 melanoma = test system: SK-MEL-2 melanoma
# MOLT-4 leukemia = test system: MOLT-4 leukemia
# NCI-H460 lung = test system: NCI-H460 lung
# LOX IMVI melanoma = test system: LOX IMVI melanoma
# SNB-78 CNS = test system: SNB-78 CNS
# SK-OV-3 ovarian = test system: SK-OV-3 ovarian
# SW-620 colon = test system: SW-620 colon
# DLD-1 colon = test system: DLD-1 colon
# OVCAR-5 ovarian = test system: OVCAR-5 ovarian
# M14 melanoma = test system: M14 melanoma
# SK-MEL-28 melanoma = test system: SK-MEL-28 melanoma
# SF-539 CNS = test system: SF-539 CNS
# NCI-H522 lung = test system: NCI-H522 lung
# XF 498 CNS = test system: XF 498 CNS
# A498 renal = test system: A498 renal
# KM12 colon = test system: KM12 colon
# RPMI-8226 leukemia = test system: RPMI-8226 leukemia
# HOP-92 NSCLC = test system: HOP-92 NSCLC
# U251 CNS = test system: U251 CNS
# IGROV1 ovarian = test system: IGROV1 ovarian
# SNB-75 CNS = test system: SNB-75 CNS
# OVCAR-3 ovarian = test system: OVCAR-3 ovarian
# A549 NSCLC = test system: A549 NSCLC
# DMS 114 small cell lung = test system: DMS 114 small cell lung
# M19-MEL melanoma = test system: M19-MEL melanoma
# NCI-H23 lung = test system: NCI-H23 lung
# HCT-116 colon = test system: HCT-116 colon
# CCRF-CEM leukemia = test system: CCRF-CEM leukemia
# K-562 leukemia = test system: K-562 leukemia
# EKVX NSCLC = test system: EKVX NSCLC
# HL-60(TB) leukemia = test system: HL-60(TB) leukemia
# MALME-3M melanoma = test system: MALME-3M melanoma
# SF-295 CNS = test system: SF-295 CNS
# UACC-62 melanoma = test system: UACC-62 melanoma
# HCC-2998 colon = test system: HCC-2998 colon
# HT29 colon = test system: HT29 colon
# HOP-62 NSCLC = test system: HOP-62 NSCLC
# 786-0 renal = test system: 786-0 renal
# KM20L2 colon = test system: KM20L2 colon
# COLO 205 colon = test system: COLO 205 colon
# SF-268 CNS = test system: SF-268 CNS
# SK-MEL-5 melanoma = test system: SK-MEL-5 melanoma
# ACHN renal = test system: ACHN renal
structure (smiles),measurement,setting,value
N#Cc1ccccc1NC(=O)C(=O)C(C(=O)c1ccccc1-c1ccccc1)C1OC(=O)c2ccccc21 (stereo unspecified),TGI,UACC-257 melanoma,53.8 µM
same,TGI,RXF 393 renal,25.3 µM
same,TGI,OVCAR-8 ovarian,> 100 µM
same,TGI,SK-MEL-2 melanoma,32.1 µM
same,TGI,MOLT-4 leukemia,70 µM
same,TGI,NCI-H460 lung,40.4 µM
same,TGI,LOX IMVI melanoma,32.2 µM
same,TGI,SNB-78 CNS,59.9 µM
same,TGI,SK-OV-3 ovarian,> 100 µM
same,TGI,SW-620 colon,75.5 µM
same,TGI,DLD-1 colon,32.4 µM
same,TGI,OVCAR-5 ovarian,33 µM
same,TGI,M14 melanoma,30.6 µM
same,TGI,SK-MEL-28 melanoma,40.4 µM
same,TGI,SF-539 CNS,22.7 µM
same,TGI,NCI-H522 lung,21 µM
same,TGI,XF 498 CNS,33.6 µM
same,TGI,A498 renal,45.2 µM
same,TGI,KM12 colon,41.3 µM
same,TGI,RPMI-8226 leukemia,79.7 µM
same,TGI,HOP-92 NSCLC,38.8 µM
same,TGI,U251 CNS,25.6 µM
same,TGI,IGROV1 ovarian,66.7 µM
same,TGI,SNB-75 CNS,29.9 µM
same,TGI,OVCAR-3 ovarian,32.7 µM
same,TGI,A549 NSCLC,> 100 µM
same,TGI,DMS 114 small cell lung,41.6 µM
same,TGI,M19-MEL melanoma,35.3 µM
same,TGI,NCI-H23 lung,26.1 µM
same,TGI,HCT-116 colon,23 µM
same,TGI,CCRF-CEM leukemia,> 100 µM
same,TGI,K-562 leukemia,> 100 µM
same,TGI,EKVX NSCLC,36 µM
same,TGI,HL-60(TB) leukemia,50.2 µM
same,TGI,MALME-3M melanoma,26.8 µM
same,TGI,SF-295 CNS,58.3 µM
same,TGI,UACC-62 melanoma,33.8 µM
same,TGI,HCC-2998 colon,29.2 µM
same,TGI,HT29 colon,97.3 µM
same,TGI,HOP-62 NSCLC,25.1 µM
same,TGI,786-0 renal,33.5 µM
same,TGI,KM20L2 colon,40.8 µM
same,TGI,COLO 205 colon,43.2 µM
same,TGI,SF-268 CNS,38.8 µM
same,TGI,SK-MEL-5 melanoma,> 100 µM
same,TGI,ACHN renal,89.4 µM
